Data published in ChEMBL document CHEMBL4823252 (J Med Chem, 2021).
The source made the active and inactive calls. The rule behind the calls is not given here.

Key:
[1] = biological target: Receptor-type tyrosine-protein kinase FLT3 (Homo sapiens) (UniProt P36888); test: Inhibition of FLT3 in human MV4-11 cells assessed as reduction in autophosphorylation at tyr589/591 residue incubated for 2 hrs by Western blot analysis; type: cell-based
[2] = biological target: Receptor-type tyrosine-protein kinase FLT3 (Homo sapiens) (UniProt P36888); test: Inhibition of FLT3 in human MV4-11 cells assessed as reduction in ERK phosphorylation at 10 uM incubated for 2 hrs by Western blot analysis; type: cell-based
[3] = biological target: T1, Receptor-type tyrosine-protein kinase FLT3 (Homo sapiens, UniProt P36888); test: Inhibition of FLT3 (unknown origin) incubated for 30 mins in presence of ATP by mobility shift assay
T1 sequence (P36888 whole entry): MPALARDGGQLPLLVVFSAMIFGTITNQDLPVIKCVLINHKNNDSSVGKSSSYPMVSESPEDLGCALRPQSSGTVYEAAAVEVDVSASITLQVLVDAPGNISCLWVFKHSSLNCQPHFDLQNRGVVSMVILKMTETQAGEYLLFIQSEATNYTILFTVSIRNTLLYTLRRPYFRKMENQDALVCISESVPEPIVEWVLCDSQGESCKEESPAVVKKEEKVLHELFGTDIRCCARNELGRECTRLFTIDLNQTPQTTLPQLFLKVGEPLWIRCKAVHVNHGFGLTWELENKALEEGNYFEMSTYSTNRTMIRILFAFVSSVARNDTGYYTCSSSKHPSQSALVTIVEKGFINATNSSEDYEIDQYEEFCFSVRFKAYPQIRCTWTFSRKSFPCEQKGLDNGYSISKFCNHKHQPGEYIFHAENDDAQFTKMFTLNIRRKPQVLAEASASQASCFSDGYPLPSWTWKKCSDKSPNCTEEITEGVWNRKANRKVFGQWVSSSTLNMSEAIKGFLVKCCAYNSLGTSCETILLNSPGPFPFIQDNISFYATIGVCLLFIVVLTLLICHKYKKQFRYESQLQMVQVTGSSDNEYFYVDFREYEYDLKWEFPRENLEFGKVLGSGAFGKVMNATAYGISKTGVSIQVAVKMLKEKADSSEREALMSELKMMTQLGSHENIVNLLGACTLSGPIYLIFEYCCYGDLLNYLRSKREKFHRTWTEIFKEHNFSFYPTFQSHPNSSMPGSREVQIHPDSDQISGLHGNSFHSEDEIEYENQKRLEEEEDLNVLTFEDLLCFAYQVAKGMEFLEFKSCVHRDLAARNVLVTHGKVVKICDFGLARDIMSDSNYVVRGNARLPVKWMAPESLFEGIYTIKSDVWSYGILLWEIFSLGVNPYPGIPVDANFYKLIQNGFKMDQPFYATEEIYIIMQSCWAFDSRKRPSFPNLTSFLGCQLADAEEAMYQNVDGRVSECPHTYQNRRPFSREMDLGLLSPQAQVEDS

[4] = Tmax in Sprague-Dawley rat at 10 mg/kg, po; type: ADME, organism-based; conditions: in vivo
HepG2 = test: Antiproliferative activity against human HepG2 cells measured after 72 hrs by CCK8 assay; type: functional, cell-based; conditions: HepG2, 72 h
MOLM-13 [5] = test: Antitumor activity against human MOLM-13 cells xenografted in mouse assessed as tumor growth inhibition at 20 mg/kg, po administered for 16 days measured once every 2 days relative to control; type: functional; conditions: MOLM-13, po, 384 h, time 16 day, read-out: TGI
KG-1 = test: Antiproliferative activity against human KG1 cells measured after 72 hrs by CCK8 assay; type: functional, cell-based; conditions: KG-1, 72 h
[6] = MRT (0 to last) in Sprague-Dawley rat at 10 mg/kg, po; type: ADME, organism-based; conditions: in vivo
[7] = test system: Receptor-type tyrosine-protein kinase FLT3 (Homo sapiens), P36888 [D835V]; test: Binding affinity to FLT3 D835V mutant (unknown origin) at 1000 nM relative to control
[8] = test system: Receptor-type tyrosine-protein kinase FLT3 (Homo sapiens), P36888 [D835Y]; test: Binding affinity to FLT3 D835Y mutant (unknown origin) at 1000 nM relative to control
U-937 = test: Antiproliferative activity against human U-937 cells measured after 72 hrs by CCK8 assay; type: functional, cell-based; conditions: U-937, 72 h
MV4-11 = test: Induction of apoptosis in human MV4-11 cells incubated for 24 hrs by flow cytometry; type: functional, cell-based
[9] = AUC (0 to last) in Sprague-Dawley rat at 1 mg/kg, iv; type: ADME, organism-based; design: route intravenous, time 0 - last, dose 1 mg/kg; conditions: in vivo
MOLM-13 [10] = test: Induction of cell cycle arrest in human MOLM-13 cells assessed as accumulation at G2/M phase at 100 nM incubated for 24 hrs by flow cytometry (reference value: […]); type: functional
[11] = Toxicity in mouse xenografted with human MV4-11 cells assessed as effect on heart at 2.5 to 10 mg/kg, po administered for 16 days by hematoxylin and eosin staining based assay; type: organism-based; conditions: in vivo, 384 h, dose 2.5-10 mg/kg, time 16 day

Activity [1]: Dose-Dependent Effect | Activity [2]: Active | IC50 [3]: 1.8 nM | Tmax [4]: 2.7 h | IC50 (HepG2): 1690 nM | MRT last [6]: 6.6 h | Activity [7]: Active | Activity [8]: Active | IC50 (U-937): 5260 nM | AUC(0-t) [9]: 2880 ng·h/mL
Structure (SMILES): Cc1c(NC(=O)CCN2CCCC2)c[nH]c1/C=C1\C(=O)Nc2ccc(F)cc21
inhibition in vivo at 20 mg/kg (MOLM-13 [5]): 98% | IC50 (KG-1): 1100 nM | Activity (MV4-11): Dose-Dependent Effect | Activity (MOLM-13 [10]): 0.9% | Activity [11]: Non-Toxic
